Results as given in ChEMBL document CHEMBL1143413, “Synergistic effect of posaconazole and caspofungin against clinical zygomycetes” (Antimicrob Agents Chemother, 2007).
Values after ≈ are worked out from the molar mass of the structure shown.

Tests used:
[1] = Toxicity in invasive zygomycosis diseased patient assessed as mortality; assay type: organism-based; conditions: human, in vivo; read-out: Activity
Mucor [2] = test: Antifungal activity against Mucor strain 43 zygomycota by conventional morphological method; assay type: functional
Rhizomucor = test: Antifungal activity against Rhizomucor sp. strain 25 zygomycota by conventional morphological method; assay type: functional
Syncephalastrum = test: Antifungal activity against Snycephalastrum sp. strain 23 zygomycota by conventional morphological method; assay type: functional
Absidia [3] = test: Antifungal activity against Absidia strain 11 zygomycota by conventional morphological method; assay type: functional
Rhizopus [4] = test: Antifungal activity against Rhizopus strain 8 zygomycota by conventional morphological method; assay type: functional
Mucor [5] = test: Antifungal activity against Mucor strain 28 zygomycota by conventional morphological method; assay type: functional
Cunninghamella = test: Antifungal activity against Cunninghamella sp. strain 12 zygomycota by conventional morphological method; assay type: functional
Rhizopus [6] = test: Antifungal activity against Rhizopus strain 3 zygomycota by conventional morphological method; assay type: functional
Absidia [7] = test: Antifungal activity against Absidia strain 18 zygomycota by conventional morphological method; assay type: functional
Absidia [8] = test: Antifungal activity against Absidia strain 17 zygomycota by conventional morphological method; assay type: functional
Mucor [9] = test: Antifungal activity against Mucor strain 39 zygomycota by conventional morphological method; assay type: functional
Rhizopus [10] = test: Antifungal activity against Rhizopus strain 0 zygomycota by conventional morphological method; assay type: functional

| SMILES | mortality [1] | MIC (Mucor [2]) | MIC (Rhizomucor) | MIC (Syncephalastrum) | MIC (Absidia [3]) | MIC (Rhizopus [4]) | MIC (Mucor [5]) | MIC (Cunninghamella) | MIC (Rhizopus [6]) | MIC (Absidia [7]) | MIC (Absidia [8]) | MIC (Mucor [9]) | MIC (Rhizopus [10]) |
| --- | --- | --- | --- | --- | --- | --- | --- | --- | --- | --- | --- | --- | --- |
| CC[C@@H]([C@H](C)O)n1ncn(-c2ccc(N3CCN(c4ccc(OC[C@@H]5CO[C@@](Cn6cncn6)(c6ccc(F)cc6F)C5)cc4)CC3)cc2)c1=O [POSACONAZOLE] | 30% | 0.5 µg/mL (≈ 0.713 µM) | 2 µg/mL (≈ 2.85 µM) | 1 µg/mL (≈ 1.43 µM) | 1 µg/mL (≈ 1.43 µM) | 1 µg/mL (≈ 1.43 µM) | 0.5 µg/mL (≈ 0.713 µM) | 1 µg/mL (≈ 1.43 µM) | 1 µg/mL (≈ 1.43 µM) | 0.5 µg/mL (≈ 0.713 µM) | 1 µg/mL (≈ 1.43 µM) | 1 µg/mL (≈ 1.43 µM) | 1 µg/mL (≈ 1.43 µM) |
| CC[C@H](C)C[C@H](C)CCCCCCCCC(=O)N[C@H]1C[C@@H](O)[C@@H](NCCN)NC(=O)[C@@H]2[C@@H](O)CCN2C(=O)[C@H]([C@H](O)CCN)NC(=O)[C@H]([C@H](O)[C@@H](O)c2ccc(O)cc2)NC(=O)[C@@H]2C[C@@H](O)CN2C(=O)[C@H]([C@@H](C)O)NC1=O [CASPOFUNGIN] |  | 256 µg/mL (≈ 234 µM) | 128 µg/mL (≈ 117 µM) | > 256 µg/mL | > 256 µg/mL | > 256 µg/mL | 256 µg/mL (≈ 234 µM) | > 256 µg/mL | > 256 µg/mL | > 256 µg/mL | > 256 µg/mL | > 256 µg/mL | > 256 µg/mL |
